Experimental data from patent US20240139195A1, “METHODS OF TREATING CHRONIC ACTIVE ANTIBODY-MEDIATED REJECTION USING BTK INHIBITORS” (BeiGene Switzerland GmbH, priority 2021, published 2024).
Entries after “also recorded” stand apart in the source; their conditions may differ.

Legend:
renal allografts = test: Histological examination of renal allografts (H&E, PAS, Masson staining) for severity of CAMR; type: in vivo, Lewis rats
Description: Left kidney transplantation was performed between male F344 and Lewis rats [Vogelbacher R, et al. Nephrology, dialysis, transplantation: official publication of the European Dialysis and Transplant Association—European Renal Association. 2010; 25: 3764-73.]. […] In order to allow the production of alloantibodies, no immunosuppressive agents were used within the first 2 weeks after kidney transplantation. […] Histological analysis was performed by using H&E, PAS and Masson staining. H&E, PAS and Masson trichome staining were performed as detailed elsewhere[Wang Z, et al. Journal of cellular and molecular medicine. 2017; 21: 2359-69.], which was used to evaluate the severity of CAMR. The diagnostic criteria of CAMR was according to Banff 2017 criteria. Characteristics of CAMR were defined as arterial intimal fibrosis, positive C4d staining in PTC and DSA. Measurement of arteriosclerosis caused by intimal fibrosis was performed for the areas surrounded by the luminal surface and internal elastic lamina of each vessel. The area determined by the internal elastic lamina subtraction of the internal elastic lamina to the luminal area was considered as the intimal area. Quantitative analysis the morphometric change of the kidney sections was performed according to results of two pathologists blinded to the experimental design independently.

[1] = system: donor specific alloantibody (DSA); test: Donor specific alloantibody (DSA) analysis by flow cytometry; type: in vivo, Lewis rats; conditions: allogeneic recipients, vs vehicle
Description: (§1) Left kidney transplantation was performed between male F344 and Lewis rats [Vogelbacher R, et al. Nephrology, dialysis, transplantation: official publication of the European Dialysis and Transplant Association—European Renal Association. 2010; 25: 3764-73.]. The average time of cold ischemia time and warm ischemia time was 25 and 40 minutes, respectively. In order to allow the production of alloantibodies, no immunosuppressive agents were used within the first 2 weeks after kidney transplantation.
Spleen lymphocytes of normal F344 rats were extracted using lymphocyte separation medium. Serum samples of allogeneic rats were incubated with spleen lymphocytes at room temperature for 30 minutes. Spleen lymphocytes were washed for three times and then incubated with a fluorescein isothiocyanate (FITC)-labeled anti-rat IgG antibody (BD Biosciences) at room temperature for 30 min. Mean fluorescence intensity (MFI) was determined in order to assess DSA levels by flow cytometry (Beckman DxFLEX, Beckman, Brea, CA) [Zhao D, et al. American journal of transplantation: official journal of the American Society of Transplantation and the American Society of Transplant Surgeons. 2018; 18: 1083-95; Liao T, et al. Frontiers in immunology. […]

[2] = Renal function assessment (blood creatinine and urea nitrogen) after resection of native right kidney; type: in vivo, Lewis rats; conditions: allogeneic recipients, right kidney resected 10 days after transplantation, vs vehicle
Description: Concentrations of rat blood creatinine and urea nitrogen were tested by instructions of manufacturer of the kits (JianCheng, China).
(§2) After the resection of right kidney, the blood concentration of creatinine and urea nitrogen continued to deteriorate and reach the summit at 12 weeks after transplantation.

[3] = Long-term survival of allogeneic kidney transplant recipients; type: in vivo, Lewis rats; conditions: right kidney resected 10 days after transplantation, vs vehicle, log-rank P<0.05
Excerpt: as §2

[4] = system: C4d and IgG deposition in allograft kidney; test: Immunofluorescence staining of C4d and IgG deposition in allograft kidney; type: in vivo, Lewis rats; conditions: 2 mg/kg
Description: as §1

[5] = system: T cells, B cells and plasma cells in peripheral blood; test: Flow cytometry of T cells, B cells and plasma cells in rat peripheral blood; type: in vivo; conditions: 8 weeks after kidney transplantation
Description: PBMCs were doubly incubated with FITC-conjugated anti-CD45R (2.5 μg/10^6 cells; eBioscience, Thermo Fisher Scientific, USA) and APC-conjugated anti-CD19 (2 μg/10^6 cells; Bioss, China), FITC-conjugated anti-CD45R (2.5 μg/10^6 cells; eBioscience, Thermo Fisher Scientific, USA) and Alexa Fluor 647 (conjugated anti-CD138 (0.1 μg/10^6 cells; Abcam, USA), APC-conjugated anti-CD3 (3 μg/10^6 cells; BioLegend, USA) and FITC-conjugated anti-CD4 (0.5 μg/10^6 cells; BioLegend, USA) as well as APC-conjugated anti-CD3 (3 μg/10^6 cells; BioLegend, USA) and Percp-eFluor710-conjugated anti-CD8 (0.3 μg/10^6 cells; BioLegend, USA), respectively. The percentages of CD45R^+CD19^+B cells, CD45R^−CD138^+ plasma cells, and CD3^+CD4^+ and CD3^+CD8^+ T cells were determined by flow cytometry (BD Accuri C6, BD Biosciences).
In order to investigate the immune state of syngenetic and allogenic rats, flow cytometry was used to test the amounts of T cells, B cells, and plasma cells.

[6] = system: TNF-α, TGF-β, IL-17A, IL-35, IL-10; test: ELISA of rat serum cytokines; type: in vivo; conditions: 12 weeks after kidney transplantation, allogeneic recipients vs vehicle
Description: The levels of rat serum TNF-α, TGF-β, IL-17A, IL-35, IL-10 were quantified by rat TNF-α ELISA kit (MUTISCIENCES; China), rat TGF-β ELISA kit (MUTISCIENCES; China), rat IL-35 ELISA kit (MUTISCIENCES; China), rat IL-17A ELISA kit (MUTISCIENCES; China) and rat IL-10 ELISA kit (MUTISCIENCES; China), respectively. The assays were performed as described in the manufacturer's instructions.
At 12 weeks after kidney transplantation, serum isolated from rat peripheral blood was used to detect the concentration of inflammatory cytokines.

[7] = system: T cells, B cells, plasma cells and macrophages in allograft kidneys; conditions: 12 weeks after transplantation
Description: Recipients with phosphate buffered saline alone were considered as the vehicle control. At 4, 8, 12 and 16 weeks, organs were harvested and divided into two parts, which were fixed in paraffin or snap-frozen in N2 and stored at −80° C. Peripheral blood mononuclear cells (PBMCs) were separated from the rat peripheral blood to be used in flow cytometry.
Paraffin-embedded sections (4 m) were incubated with primary antibodies against anti-phospho-BTK (1:100; Santa Cruz, USA), C4d (1:200, BioLegend, USA) CD3 (1:200, BioLegend, USA), CD4 (1:200, BioLegend, USA), CD8 (1:200, BioLegend, USA), CD19 (1:200, Bioss, China), CD138 (1:100, Abcam) and CD68 (1:100, Abcam) overnight at 4° C. in a humidified chamber. The appropriate isotype-matched IgG was used as the negative control. […] Quantitative analysis of positive cells (T cells, B cells, plasma cell and macrophages) and IgG positive area was analyzed by using Image-Pro Plus (Media Cybernetics, Rockville, MD). Quantitative analysis of C4d positive PTC was performed according to outcomes of two independent pathologists blinded to the experimental design.

[8] = after treatment for 10 weeks, 2 mg/kg, vs allograft kidneys

## C=CC(=O)N1CCC([C@@H]2CCNc3c(C(N)=O)c(-c4ccc(Oc5ccccc5)cc4)nn32)CC1 [Compound 1, (S)-7-(1-acryloylpiperidin-4-yl)-2-(4-phenoxyphenyl)-4,5,6,7-tetrahydropyrazolo-[1,5-a]pyrimidine-3-carboxamide]
Renal allografts; [8]
  lesion area of interstitial fibrosis (PAS and Masson staining): significantly ameliorated
  lesion area of tubular atrophy (PAS and Masson staining): significantly ameliorated
Renal allografts; allogeneic recipients, 2 mg/kg, vs vehicle
  glomerular sclerosis (H&E staining): significantly ameliorated
Renal allografts; allograft kidney, treatment from second week after transplantation
  CAMR (fibrous intimal thickening in arteries, C4d deposition in PTC, increase of DSA): significantly alleviated
[1]; treatment from second week after transplantation, 8, 12, 16 weeks
  production of DSA: significantly reduced; also recorded: prevented further production
[1]; until end of treatment at 16 weeks
  level of DSA: relatively low level
[2]
  blood creatinine: remarkably inhibited the increases; also recorded: relatively low levels
  blood urea nitrogen: remarkably inhibited the increases; also recorded: relatively low levels
[3]
  survival rate of allogeneic recipients: significantly increased; also recorded: higher
[4]; allograft kidney
  deposition of C4d in peritubular capillaries (PTC): dramatically reduced
[4]; allograft kidneys after treatment, almost 30% without treatment
  positive (lesion) area of IgG: less than 10%
[5]; 2 mg/kg
  effect on T cells (CD3+CD4+, CD3+CD8+) in peripheral blood: sight effect; also recorded: slight effects
[5]; 2 mg/kg for 6 weeks
  elevation of CD19+CD45R+ B cells in peripheral blood: significantly inhibited increases; also recorded: significantly suppressed
  elevation of plasma cells in peripheral blood: significantly inhibited increases; also recorded: significantly suppressed
[6]
  secretion of IL-10 (serum): further increased
  secretion of IL-35 (serum): further increased
  secretion of TGF-β (serum): further increased
  serum level of IL-17A: reduce; also recorded: effectively decreased
  serum level of TNF-α: reduce; also recorded: effectively decreased
[7]
  infiltration of B cells in allograft kidney: remarkably reduced; also recorded: significantly reduced
  infiltration of T cells in allograft kidney: remarkably reduced; also recorded: significantly reduced
  infiltration of macrophages in allograft kidney: remarkably reduced; also recorded: decrease
  infiltration of plasma cells in allograft kidney: significantly reduced
